Measurements taken from ChEMBL document CHEMBL1201862, “PubChem BioAssay data set” (2004).
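The compound was tested at five concentrations on cells cultured in 96-well plates, with a 48-hour exposure period. Abbreviation: GI50, concentration required for 50% inhibition of growth.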 Activity calls are given as the source filed them. No stated cut-off is given here; in the data, active = GI50 up to about 1.1 µM and inactive = higher.

Legend:
Experiment in all cases: inhibition of tumour cell growth, NCI panel, 48 h
Hs-578T = system: Hs-578T
LXFL 529 = system: LXFL 529
DMS-273 = system: DMS-273
XF498 = system: XF498
DMS-114 = system: DMS-114
DLD-1 = system: DLD-1
SNB-78 = system: SNB-78
HOP-18 = system: HOP-18
RXF 631 = system: RXF 631

Measured: GI50

Cc1cc(S(=O)(=O)Nc2n[nH]c(Nc3ccccc3)n2)c(S)cc1Cl
inactive: Hs-578T > 10 µM

O=C1NC(=S)NC(=O)C1=Cc1cccc2cc3ccccc3cc12
inactive: Hs-578T 2.97 µM

N#Cc1c(C#N)c(-c2ccccc2)n(-c2ccccc2)c1N
inactive: Hs-578T 21 µM

CC12C=CC(=O)C=C1CCC1C3CCC(O)(C(=O)CO)C3(C)CC(O)C12F (stereo not given)
inactive: LXFL 529 > 100 µM | DMS-273 > 100 µM | XF498 > 100 µM | DMS-114 > 100 µM | Hs-578T > 100 µM | DLD-1 > 100 µM | SNB-78 > 100 µM

CC(=O)Nc1ccc(C(=O)NN2C(=O)C(Cl)C2c2ccccc2O)cc1 (stereo not given)
inactive: LXFL 529 > 100 µM | DMS-273 99.1 µM | XF498 28.1 µM | DLD-1 > 100 µM

C=CCOc1cc(NC(=S)c2ccoc2C)ccc1OC
inactive: Hs-578T > 100 µM

C/C=C/C#CC#C/C=C/C=C/C(O)CCO (stereo not given)
inactive: LXFL 529 > 23.1 µM | DMS-273 > 23.1 µM | XF498 > 23.1 µM | DMS-114 > 23.1 µM | HOP-18 > 23.1 µM | DLD-1 > 23.1 µM | SNB-78 > 23.1 µM

O=c1[nH]nc(-c2ccccc2)n1/N=C/c1ccncc1
inactive: Hs-578T 26.2 µM

O=C1C2CCCCC2C(=O)N1n1c(Cc2ccc(Cl)cc2)n[nH]c1=O (stereo not given)
inactive: Hs-578T > 100 µM

CCN1CCC(O)(c2ccc(Cl)c(Cl)c2)C(C(=O)c2ccc(Cl)c(Cl)c2)C1 (stereo not given)
inactive: LXFL 529 16.2 µM | DMS-273 18.1 µM | XF498 19.2 µM | DMS-114 17.1 µM | DLD-1 17.8 µM

COCc1nc2c(OC)c(-c3nc4ccc(N5CCN(C)CC5)cc4[nH]3)cc(OC)c2[nH]1
inactive: Hs-578T 69.8 µM

Cc1c(C(=N)N)oc2ccccc12
inactive: LXFL 529 > 100 µM | XF498 21.4 µM | DMS-114 > 100 µM | HOP-18 > 100 µM | DLD-1 > 100 µM | SNB-78 > 100 µM

COc1cc(CC2C(=O)OCC2Cc2ccc(OC)c(OC)c2)ccc1O (stereo not given)
inactive: Hs-578T > 100 µM

c1ccc2cc(CN3CCC(C4CCN(Cc5ccc6ccccc6c5)CC4)CC3)ccc2c1
inactive: Hs-578T 2.49 µM

CC(C)(C)OC(=O)NC(CCCCNC(=O)OCc1ccccc1)C(=O)NC(CCCCNC(=O)OCc1ccccc1)C(=O)ON1C(=O)CCC1=O (stereo not given)
inactive: Hs-578T > 100 µM

Fc1cccc(F)c1C1SCc2nc3cc(Cl)c(Cl)cc3n21 (stereo not given)
inactive: Hs-578T > 100 µM

N=C1NC2(O)C(=O)c3ccccc3C2(O)N1 (stereo not given)
inactive: LXFL 529 > 100 µM | DMS-273 > 100 µM | DMS-114 > 100 µM | HOP-18 > 100 µM | RXF 631 > 100 µM | DLD-1 > 100 µM | SNB-78 > 100 µM

O=C(c1ccc(Cl)cc1)N(C(=S)N1CCN(c2ccccn2)CC1)c1ccccc1
inactive: LXFL 529 55.2 µM | DMS-273 78.3 µM | DMS-114 42.5 µM | HOP-18 > 100 µM | DLD-1 > 100 µM | SNB-78 > 100 µM

C=CCC(O)c1cc(OC)ccc1OC (stereo not given)
inactive: LXFL 529 > 100 µM | DMS-273 > 100 µM | XF498 > 100 µM | DMS-114 > 100 µM | RXF 631 > 100 µM

COc1cccc(OC)c1NC(=O)C(=O)Nn1c(NNC(=O)c2ccncc2)nc2ccccc2c1=O
inactive: Hs-578T > 100 µM

COc1cc(C(=O)C/C(CCC(=O)Nc2ccc(Cl)cc2Cl)=N/Nc2nnc(C)n2N)ccc1O
inactive: LXFL 529 > 100 µM | DMS-273 > 100 µM | XF498 > 100 µM | HOP-18 > 100 µM | DLD-1 > 100 µM | SNB-78 > 100 µM

CNC(=O)Oc1ccc(C(=S)Nc2ccc(Br)cc2)cc1
inactive: Hs-578T 19.8 µM

COC(=O)c1ccccc1C1=C([N+](=O)[O-])C(c2cccc(Br)c2)C(C#N)=C(N)O1 (stereo not given)
inactive: Hs-578T 18.3 µM

CSc1nc(Cl)c2c(n1)Sc1nc3ccccc3n1N=C2
inactive: Hs-578T 26.7 µM

CCN(CC)C(=O)Cn1c(C)cc2ccccc21
inactive: Hs-578T > 100 µM

c1ccc(CN2CCCCC(Sc3ccccc3)CC2)cc1 (stereo not given)
inactive: LXFL 529 17.7 µM | DMS-273 12.6 µM | DMS-114 22.4 µM | HOP-18 42.7 µM | DLD-1 20.8 µM | SNB-78 27.2 µM

Nc1cnc(Nc2cccc3ccccc23)o1
inactive: Hs-578T > 10 µM

CN(C)c1ccc(-c2ccc(N(C)C)c3n[se]nc23)c2n[se]nc12
inactive: Hs-578T 88.1 µM

C[C@]12CC(C#N)C(=O)C(O)=C1CC[C@@H]1C2CC[C@@]2(C)C1CC[C@@H]2O (stereo not given in full)
inactive: LXFL 529 65.5 µM | DMS-273 17.3 µM | XF498 18.8 µM | DMS-114 49 µM | DLD-1 58.3 µM | SNB-78 65.3 µM

CC12CCC([C@H](N3CCOCC3)/C1=N\OCCN1CCCC1)C2(C)C (stereo not given in full)
inactive: LXFL 529 > 100 µM | DMS-273 > 100 µM | DMS-114 71.9 µM | HOP-18 > 100 µM | RXF 631 > 100 µM | DLD-1 > 100 µM | SNB-78 > 100 µM
